Like-named read-outs stand apart in the source and are kept apart here.
Experiments:
[1] = system: Escherichia coli expressing NDM-1 (CLB30005); experiment: Antibiotic potentiation activity: synergistic concentration (MITC95) with imipenem, OD600 growth; format: cell-based; conditions: for Escherichia coli expressing NDM-1 (CLB 30005) MITC95: concentration giving 95% inhibition of bacterial growth; for Escherichia coli MITC95: Escherichia coli expressing NDM-1 (CLB30005), 95% growth inhibition
Outline: (§1)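 Growth after 22–24 h at 35 °C is measured spectrophotometrically for bacteria incubated with compound plus imipenem (4 μg/ml in-well, or 1 μg/ml). Cells come from overnight agar colonies resuspended in saline and diluted 1:100 in 1.1× CAMHB.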

[2] = system: Klebsiella pneumoniae expressing VIM-1 (IHMA599644); experiment: as above; format: cell-based; conditions: for Klebsiella pneumoniae expressing VIM-1 (IHMA 599644) MITC95: concentration giving 95% inhibition of bacterial growth; for Klebsiella pneumoniae MITC95: Klebsiella pneumoniae expressing VIM-1 (IHMA599644), 95% growth inhibition
Outline: as §1

[3] = system: Serratia marcescens expressing IMP-1 (CL5741); experiment: as above; format: cell-based; conditions: for Serratia marcescens expressing IMP-1 (CL5741) MITC95: concentration giving 95% inhibition of bacterial growth; for Serratia marcescens MITC95: Serratia marcescens expressing IMP-1 (CL5741), 95% growth inhibition
Outline: as §1

IMP-1 = IMP-1 (Serratia marcescens, UniProt P52699); experiment: biochemical; format: biochemical; conditions: read-out: IMP-1 IC50
Chain of IMP-1 (P52699 whole entry, looked up): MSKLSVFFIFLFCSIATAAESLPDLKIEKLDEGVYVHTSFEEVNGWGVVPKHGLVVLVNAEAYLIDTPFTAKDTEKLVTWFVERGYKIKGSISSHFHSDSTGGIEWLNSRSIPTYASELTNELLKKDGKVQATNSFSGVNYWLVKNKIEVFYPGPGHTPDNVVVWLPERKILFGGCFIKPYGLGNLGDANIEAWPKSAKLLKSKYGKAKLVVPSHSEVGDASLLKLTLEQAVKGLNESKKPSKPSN

VIM-1 = VIM-1 (Pseudomonas aeruginosa (strain ATCC 15692 / DSM 22644 / CIP 104116 / JCM 14847 / LMG 12228 / 1C / PRS 101 / PAO1), UniProt A0A0F7KYQ8); experiment: Enzyme activity: determination of IC50, fluorescence assay with CCF2-FA substrate (VIM-1); format: biochemical
NDM-1 = NDM-1 (Klebsiella pneumoniae, UniProt C7C422); experiment: biochemical; format: biochemical; conditions: read-out: NDM-1 IC50
Chain of NDM-1 (C7C422 whole entry, looked up, species assumed): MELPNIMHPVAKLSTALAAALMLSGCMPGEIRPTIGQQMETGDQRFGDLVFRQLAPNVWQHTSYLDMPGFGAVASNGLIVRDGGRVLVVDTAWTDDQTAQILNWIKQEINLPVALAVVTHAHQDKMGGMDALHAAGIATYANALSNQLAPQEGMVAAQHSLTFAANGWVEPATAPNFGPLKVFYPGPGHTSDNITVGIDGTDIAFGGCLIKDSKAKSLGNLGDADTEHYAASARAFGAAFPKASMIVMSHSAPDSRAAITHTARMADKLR

[4] = fluorescence assay with CCF2-FA substrate
[5] = fluorescence assay with CCF2-FA substrate, read-out: VIM-1 IC50
[6] = IMP-1 enzyme, CCF2-FA fluorescence assay
[7] = VIM-1 enzyme, CCF2-FA fluorescence assay, read-out: VIM-1 IC50
[8] = NDM-1 enzyme, CCF2-FA fluorescence assay

SMILES | Escherichia coli expressing NDM-1 (CLB 30005) MITC95 [1] [µM] | Klebsiella pneumoniae expressing VIM-1 (IHMA 599644) MITC95 [2] [µM] | Serratia marcescens expressing IMP-1 (CL5741) MITC95 [3] [µM] | IC50 (IMP-1; [4]) [nM] | IC50 (VIM-1; [5]) [nM] | IC50 (NDM-1; [4]) [nM] | Escherichia coli MITC95 [1] [µM] | Klebsiella pneumoniae MITC95 [2] [µM] | Serratia marcescens MITC95 [3] [µM] | IC50 (IMP-1; [6]) [nM] | IC50 (VIM-1; [7]) [nM] | IC50 (NDM-1; [8]) [nM] | IC50 (VIM-1; VIM-1 IC50, VIM-1 enzyme, CCF2-FA fluorescence assay) [nM] | IC50 (VIM-1; VIM-1 IC50, fluorescence assay with CCF2-FA substrate) [nM]
Cn1nnc2ccc(-c3cccc(S(N)(=O)=O)c3-c3nn[nH]n3)cc21 [Example 67, 3-(1-methyl-1H-benzotriazol-6-yl)-2-(2H-tetrazol-5-yl)benzenesulfonamide] | 2.344 | 62.5 | 75 | 911 | 57 | 2.16 |  |  |  |  |  |  |  | 
NC(=O)c1ccc(-c2cccc(S(N)(=O)=O)c2-c2nn[nH]n2)cc1 [Example 15, 3′-sulfamoyl-2′-(2H-tetrazol-5-yl)biphenyl-4-carboxamide] | 0.3906 | 18.75 | 15.63 | 134 | 62.3 | 5.96 |  |  |  |  |  |  |  | 
CS(=O)(=O)c1ccc(-c2cccc(S(N)(=O)=O)c2-c2nn[nH]n2)cn1 [Example 58, 3-[6-(methylsulfonyl)pyridin-3-yl]-2-(2H-tetrazol-5-yl)benzenesulfonamide] | 0.5859 | 100 | 12.5 | 227 | 190 | 14.5 |  |  |  |  |  |  |  | 
NCc1nc(-c2ccc(-c3cccc(S(N)(=O)=O)c3-c3nn[nH]n3)cc2)no1 [Example 249, 4′-(5-(Aminomethyl)-1,2,4-oxadiazol-3-yl)-2-(2H-tetrazol-5-yl)-[1,1′-biphenyl]-3-sulfonamide] |  |  |  |  |  |  | 0.7813 | 50 | 3.125 | 104 | 87 | 7.55 |  | 
CS(=O)(=O)Nc1cccc(-c2ccnc(S(N)(=O)=O)c2-c2nn[nH]n2)c1 [Example 202, 4-(3-(methylsulfonamido)phenyl)-3-(2H-tetrazol-5-yl)pyridine-2-sulfonamide] | 0.3906 | 25 | 2.344 | 23.8 | 118 | 11.5 |  |  |  |  |  |  |  | 
NS(=O)(=O)c1nccc(-c2ccc3[nH]nc(C(F)(F)F)c3c2)c1-c1nn[nH]n1 [Example 209, 3-(2H-tetrazol-5-yl)-4-(3-(trifluoromethyl)-1H-indazol-5-yl)pyridine-2-sulfonamide] | 2.604 | 37.5 | 75 | 516 | 5.45 | 26.3 |  |  |  |  |  |  |  | 
CONC(=O)c1ccc(-c2cccc(S(N)(=O)=O)c2-c2nn[nH]n2)cc1 [Example 88, N-methoxy-3′-sulfamoyl-2′-(2H-tetrazol-5-yl)biphenyl-4-carboxamide] | 1.953 | 100 | 12.5 | 87.3 | 243 | 2.98 |  |  |  |  |  |  |  | 
Cn1ncc2cc(-c3cccc(S(N)(=O)=O)c3-c3nn[nH]n3)ccc21 [Example 68, 3-(1-methyl-1H-indazol-5-yl)-2-(2H-tetrazol-5-yl)benzenesulfonamide] | 2.344 | 75 | 12.5 | 81.9 | 33.7 | 1.99 |  |  |  |  |  |  |  | 
COc1cncc(-c2cccc(S(N)(=O)=O)c2-c2nn[nH]n2)n1 [Example 40, 3-(6-methoxypyrazin-2-yl)-2-(2H-tetrazol-5-yl)benzenesulfonamide] | 3.125 | 200 | 200 | 3050 | 560 | 42.2 |  |  |  |  |  |  |  | 
NS(=O)(=O)c1cccc(-c2ccc(C3(O)CNC3)cc2)c1-c1nn[nH]n1 [Example 315, 4′-(3-hydroxyazetidin-3-yl)-2-(2H-tetrazol-5-yl)-[1,1′-biphenyl]-3-sulfonamide] |  |  |  |  |  |  | 0.3906 | 3.125 | 4.688 | 510 |  | 11.6 | 33.4 | 
NS(=O)(=O)c1cccc(-c2ccc3c(c2)C(=O)NC3)c1-c1nn[nH]n1 [Example 53, 3-(3-oxo-2,3-dihydro-1H-isoindol-5-yl)-2-(2H-tetrazol-5-yl)benzenesulfonamide] | 0.5859 | 37.5 | 6.25 | 73.3 | 37 | 4.41 |  |  |  |  |  |  |  | 
NS(=O)(=O)c1nccc(-c2ccc3cn[nH]c3c2)c1-c1nn[nH]n1 [Example 203, 4-(1H-indazol-6-yl)-3-(2H-tetrazol-5-yl)pyridine-2-sulfonamide] | 0.3906 | 9.375 | 50 | 1430 | 43.6 | 18.6 |  |  |  |  |  |  |  | 
CC1(c2ccc(-c3cccc(S(N)(=O)=O)c3-c3nn[nH]n3)cc2)SC(=O)NC1=O (stereo not drawn) [Example 75, 4′-(5-methyl-2,4-dioxo-1,3-thiazolidin-5-yl)-2-(2H-tetrazol-5-yl)biphenyl-3-sulfonamide] | 6.25 | >200 | 3.906 | 9.96 | 98.1 | 4.57 |  |  |  |  |  |  |  | 
NS(=O)(=O)c1cc(Cl)cc(-c2ccc3c(c2)C(=O)NC3)c1-c1nn[nH]n1 [Example 289, 5-Chloro-3-(3-oxo-2,3-dihydro-1H-isoindol-5-yl)-2-(2H-tetrazol-5-yl)benzenesulfonamide] |  |  |  |  |  |  | 3.125 | >200 | 31.25 | 121 | 452 | 13.5 |  | 
N#CC1(c2ccc(-c3cccc(S(N)(=O)=O)c3-c3nnn[nH]3)cc2)CCOCC1 [Example 25, 4′-(4-cyanotetrahydro-2H-pyran-4-yl)-2-(1H-tetrazol-5-yl)biphenyl-3-sulfonamide] | 3.125 | >200 | 12.5 | 3.6 | 45.5 | < 0.637 |  |  |  |  |  |  |  | 
NS(=O)(=O)c1cccc(-c2csc3ccccc23)c1-c1nn[nH]n1 [Example 96, 3-(1-benzothiophen-3-yl)-2-(2H-tetrazol-5-yl)benzenesulfonamide] | 1.758 | 25 | 15.63 | 109 | 3.55 | 1.31 |  |  |  |  |  |  |  | 
NS(=O)(=O)c1cccc(-c2cncc(F)c2)c1-c1nn[nH]n1 [Example 83, 3-(5-fluoropyridin-3-yl)-2-(2H-tetrazol-5-yl)benzenesulfonamide] | 0.3906 | 25 | 50 | 520 |  | 5.97 |  |  |  |  |  |  |  | 43.6

— patent publication US9708336B2, “Metallo-beta-lactamase inhibitors” (priority 2014, dated 2017)
